Source: ChEMBL document CHEMBL1201862, “PubChem BioAssay data set” (2004)
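Test compounds were applied to cells in 96-well plates for 48 hours at 5 doses. GI50 is the concentration that inhibits growth by half.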 Activity calls are given as the source filed them. No stated cut-off is given here; in the data, active = GI50 up to about 1.1 µM and inactive = higher.

Legend:
Assay in all cases: NCI anticancer screen, dose series, 48 h
[1] = tested on: SF-268
[2] = tested on: COLO 205
[3] = tested on: HL-60
[4] = tested on: DU-145
[5] = tested on: NCI-H522
[6] = tested on: SNB-75
[7] = tested on: SW-620
[8] = tested on: OVCAR-8
[9] = tested on: MDA-N
[10] = tested on: RPMI-8226
[11] = tested on: MCF7
[12] = tested on: EKVX
[13] = tested on: NCI-H23
[14] = tested on: SK-MEL-2
[15] = tested on: K562
[16] = tested on: UACC-62
[17] = tested on: TK-10
[18] = tested on: HCC 2998
[19] = tested on: SR
[20] = tested on: UACC-257
[21] = tested on: HOP-62
[22] = tested on: CCRF-CEM
[23] = tested on: SNB-19
[24] = tested on: IGROV-1
[25] = tested on: A549
[26] = tested on: NCI/ADR-RES
[27] = tested on: 786-0
[28] = tested on: HT-29
[29] = tested on: M14
[30] = tested on: SK-MEL-28
[31] = tested on: SK-MEL-5
[32] = tested on: OVCAR-4
[33] = tested on: UO-31
[34] = tested on: MOLT-4
[35] = tested on: PC-3
[36] = tested on: BT-549
[37] = tested on: KM12
[38] = tested on: HCT-116
[39] = tested on: Malme-3M
[40] = tested on: OVCAR-5
[41] = tested on: Hs-578T
[42] = tested on: SK-OV-3
[43] = tested on: NCI-H460
[44] = tested on: T47D
[45] = tested on: SN12C
[46] = tested on: LOX IMVI
[47] = tested on: SF-539
[48] = tested on: A498
[49] = tested on: HCT-15
[50] = tested on: NCI-H226
[51] = tested on: MDA-MB-231
[52] = tested on: ACHN
[53] = tested on: SF-295
[54] = tested on: OVCAR-3
[55] = tested on: RXF 393
[56] = tested on: U-251
[57] = tested on: MDA-MB-435
[58] = tested on: CAKI-1

COc1ccc(/C=C/NC=O)cc1
GI50 [1]: > 100 µM (inactive) | GI50 [2]: > 100 µM (inactive) | GI50 [3]: > 100 µM (inactive) | GI50 [4]: > 100 µM (inactive) | GI50 [5]: > 100 µM (inactive) | GI50 [6]: 18.1 µM (inactive) | GI50 [7]: > 100 µM (inactive) | GI50 [8]: > 100 µM (inactive) | GI50 [9]: > 100 µM (inactive) | GI50 [10]: > 100 µM (inactive) | GI50 [11]: > 100 µM (inactive) | GI50 [12]: > 100 µM (inactive) | GI50 [13]: > 100 µM (inactive) | GI50 [14]: > 100 µM (inactive) | GI50 [15]: > 100 µM (inactive) | GI50 [16]: > 100 µM (inactive) | GI50 [17]: > 100 µM (inactive) | GI50 [18]: > 100 µM (inactive) | GI50 [19]: > 100 µM (inactive) | GI50 [20]: > 100 µM (inactive) | GI50 [21]: > 100 µM (inactive) | GI50 [22]: > 100 µM (inactive) | GI50 [23]: > 100 µM (inactive) | GI50 [24]: > 100 µM (inactive) | GI50 [25]: > 100 µM (inactive) | GI50 [26]: > 100 µM (inactive) | GI50 [27]: > 100 µM (inactive) | GI50 [28]: > 100 µM (inactive) | GI50 [29]: > 100 µM (inactive) | GI50 [30]: > 100 µM (inactive) | GI50 [31]: > 100 µM (inactive) | GI50 [32]: > 100 µM (inactive) | GI50 [33]: > 100 µM (inactive) | GI50 [34]: > 100 µM (inactive) | GI50 [35]: > 100 µM (inactive) | GI50 [36]: > 100 µM (inactive) | GI50 [37]: > 100 µM (inactive) | GI50 [38]: > 100 µM (inactive) | GI50 [39]: > 100 µM (inactive) | GI50 [40]: > 100 µM (inactive) | GI50 [41]: > 100 µM (inactive) | GI50 [42]: > 100 µM (inactive) | GI50 [43]: > 100 µM (inactive) | GI50 [44]: > 100 µM (inactive) | GI50 [45]: > 100 µM (inactive) | GI50 [46]: > 100 µM (inactive) | GI50 [47]: > 100 µM (inactive) | GI50 [48]: > 100 µM (inactive) | GI50 [49]: > 100 µM | GI50 [50]: > 100 µM (inactive) | GI50 [51]: 89.5 µM (inactive) | GI50 [52]: > 100 µM (inactive) | GI50 [53]: > 100 µM (inactive) | GI50 [54]: > 100 µM (inactive) | GI50 [55]: > 100 µM (inactive) | GI50 [56]: > 100 µM (inactive) | GI50 [57]: > 100 µM (inactive)

C[C@]12CC[C@H]3[C@@H](CCC4=CC(=O)CC[C@@]43C)[C@]1(O)CC[C@]2(O)C(=O)CO
GI50 [1]: > 100 µM (inactive) | GI50 [2]: > 100 µM (inactive) | GI50 [3]: > 100 µM (inactive) | GI50 [4]: > 100 µM (inactive) | GI50 [5]: > 100 µM (inactive) | GI50 [6]: > 100 µM (inactive) | GI50 [7]: > 100 µM (inactive) | GI50 [8]: > 100 µM (inactive) | GI50 [9]: > 100 µM (inactive) | GI50 [10]: > 100 µM (inactive) | GI50 [11]: > 100 µM (inactive) | GI50 [12]: > 100 µM (inactive) | GI50 [13]: > 100 µM (inactive) | GI50 [14]: > 100 µM (inactive) | GI50 [15]: > 100 µM (inactive) | GI50 [16]: > 100 µM (inactive) | GI50 [17]: > 100 µM (inactive) | GI50 [18]: > 100 µM (inactive) | GI50 [19]: > 100 µM (inactive) | GI50 [20]: > 100 µM (inactive) | GI50 [21]: > 100 µM (inactive) | GI50 [22]: > 100 µM (inactive) | GI50 [23]: > 100 µM (inactive) | GI50 [24]: > 100 µM (inactive) | GI50 [25]: > 100 µM (inactive) | GI50 [26]: > 100 µM (inactive) | GI50 [27]: > 100 µM (inactive) | GI50 [28]: > 100 µM (inactive) | GI50 [29]: > 100 µM (inactive) | GI50 [30]: > 100 µM (inactive) | GI50 [31]: > 100 µM (inactive) | GI50 [32]: > 100 µM (inactive) | GI50 [33]: > 100 µM (inactive) | GI50 [34]: > 100 µM (inactive) | GI50 [35]: > 100 µM (inactive) | GI50 [36]: > 100 µM (inactive) | GI50 [37]: > 100 µM (inactive) | GI50 [38]: > 100 µM (inactive) | GI50 [39]: > 100 µM (inactive) | GI50 [40]: > 100 µM (inactive) | GI50 [41]: > 100 µM (inactive) | GI50 [42]: > 100 µM (inactive) | GI50 [58]: > 100 µM (inactive) | GI50 [43]: > 100 µM (inactive) | GI50 [44]: > 100 µM (inactive) | GI50 [45]: > 100 µM (inactive) | GI50 [46]: > 100 µM (inactive) | GI50 [47]: > 100 µM (inactive) | GI50 [48]: > 100 µM (inactive) | GI50 [49]: > 100 µM | GI50 [50]: > 100 µM (inactive) | GI50 [51]: > 100 µM (inactive) | GI50 [52]: > 100 µM (inactive) | GI50 [53]: > 100 µM (inactive) | GI50 [54]: > 100 µM (inactive) | GI50 [55]: > 100 µM (inactive) | GI50 [56]: > 100 µM (inactive) | GI50 [57]: > 100 µM (inactive)
